Here are results for eight molecules from patent publication US12515963B2, “Nanoparticle composition and method of inhibiting ovarian cancer cell viability” (priority 2019, dated 2026).

Assay [1] concerns vancomycin resistant Leuconostoc mesenteroides VKPM B-4177. In words: Minimum inhibitory concentration (MIC). Type of assay: cell-based. As for the experimental part:
(§1) Minimum inhibitory concentration (MIC) was determined to assess antibacterial and antifungal activities of the samples in microorganisms. MIC is the lowest concentration of a drug, which prevents visible growth of bacterium. The tested panel of microorganisms represent a very broad spectrum of microorganisms, including Gram-positive and Gram-negative strains (Staphylococcus aureus vs. Escherichia coli), methicillin resistant strain INA 00761 (Staphylococcus aureus), vancomycin resistant strain VKPM B-4177 (Leuconostoc mesenteroides), fungi strain INA 00760 (Aspergillus niger), and yeast strain RIA259 (Saccharomyces cerevisiae).
(§2) Minimum inhibitory concentration (MIC) was determined to assess the antibacterial potential of the compositions of Example 6 in microorganisms. MIC is the lowest concentration of a drug which prevents visible growth of bacterium. The tested panel of microorganisms represented a very broad spectrum of antibiotic resistant microorganisms. Sample 4-1 and Tetracycline (as control) were tested against multidrug-resistant Salmonella typhimurium DT 104. Sample 4-2 and Amoxicillin (as control) were tested against Bacillus subtilis. Sample 4-3 and Vancomycin (as control) were tested against vancomycin resistant Enterococcus type Van-A and also vancomycin resistant Leuconostoc mesenteroides VKPM B-4177. In all test conditions monometallic silver nanoparticle composition with Miramistin® alone (obtained using a process known in the art) were used as a control. This composition is referred to as “Ag-NPs-Myramistin in Table 8.

In assay [2] the test system is Saccharomyces cerevisiae RIA 259. In words: Minimum inhibitory concentration (MIC). Type of assay: cell-based. How it is done: as §1
Assay [3] has as its system Aspergillus niger INA 00760. In words: Minimum inhibitory concentration (MIC). Type of assay: cell-based. As for the experimental part: as §1
In assay [4] the test system is Staphylococcus aureus FDA 209P. In words: Minimum inhibitory concentration (MIC). Type of assay: cell-based. As for the experimental part: as §1
In assay [5] the test system is methicillin resistant Staphylococcus aureus INA 00761. In words: Minimum inhibitory concentration (MIC). Type of assay: cell-based. How it is done: as §1
Assay [6] has as its system Escherichia coli ATCC 25922. In words: Minimum inhibitory concentration (MIC). Type of assay: cell-based. As for the experimental part: as §1
For assay [7], the system named is CRL-2945 and U-87 cancer cells. In words: Activity of the drugs alone on cancer cells. Type of assay: cell-based, human. The conditions noted are these: drug alone, data not shown. As for the experimental part: (§3) The cytotoxic effects of Samples 6-1, 6-2, 7-1 and 7-2, glucosamine and Metformin on cancer cells were studied in CRL-2945 (human ovarian carcinoma) and U-87 (human glioblastoma). The doxorubicin resistant CRL-2945 and U-87 cells were generated by exposing the cells to the cytotoxic drug at incrementally increasing concentrations. In this way, resistant sublines were obtained (CRL-2945-R and U-87-R). The cell viability was analyzed in cells treated with different concentrations of Sample 6-1, Sample 6-2, Sample 7-1 and Sample 7-2. The samples were able to reduce viability in a dose-dependent manner. […] The doses were used to calculate IC50 values against the control cells (Table 12).
Higher toxicity of Sample 6-2 can be explained by the fact that Sample 6-2 bears very toxic doxorubicin, which is delivered into the cells with nanoparticles. […] Cancer cells CRL-2945-R and U-87-R were cultured in serum-free media to enrich the populations with cancer stem cells. Thus, enriched cells were tested with the samples.

A further assay relates to Bacillus subtilis. In words: Minimum inhibitory concentration (MIC). Type of assay: cell-based. As for the experimental part: as §2
The test system of assay [8] is multidrug-resistant Salmonella typhimurium DT 104. In words: Minimum inhibitory concentration (MIC). Type of assay: cell-based. Particulars: Salmonella enterica. As for the experimental part: as §2
Assay [9] concerns U-87 (human glioblastoma). In words: Cancer cell viability (cytotoxic effect). Type of assay: cell-based. Particulars: U-87, Doxorubicin column. As for the experimental part: (§4) The cytotoxic effects of Samples 1-1 and 1-3 on cancer cells were studied in HCT-116 (human colon cancer cell lines), CRL-2945 (human ovarian carcinoma) and U-87 (human glioblastoma). Cell viability was analyzed in cells treated with different concentrations of Sample 1-1 and Sample 1-3. Nanoparticle samples were able to reduce viability in a dose-dependent manner. […] The doses were used to calculate IC50 value against the control cells (Table 3).
as §3

Assay [10] has as its system CRL-2945 (human ovarian carcinoma). In words: Cancer cell viability (cytotoxic effect). Particulars: CRL-2945, Doxorubicin column. Type of assay: cell-based. As for the experimental part:
as §4, §3

The subject of the next assay is CRL-2945-R. In words: Cancer cell viability (cytotoxic effect), doxorubicin resistant subline. Type of assay: cell-based. Particulars: Homo sapiens, Doxorubicin column. How it is done: as §3
For a further assay, the system named is U-87-R. The description is as above. Type of assay: cell-based. Particulars: Homo sapiens, Doxorubicin column. How it is done: as §3

Read-outs that look alike come from different tables or passages of the source. Where only a bound is given, the exact number is not on record here.

As for `CCCCCCCCCCCCCC(=O)NCCC[N+](C)(C)Cc1ccccc1.[Cl-]` [Miramistin ®, benzyl-dimethyl-[3-(tetradecanoylamino)propyl]ammonium chloride], the MIC is 10 µg/mL in [1] (Leuconostoc mesenteroides VKPM B-4177, read-out: MIC); 20 µg/mL in assay [2] (RIA259, read-out: MIC); 20 µg/mL in assay [3] (INA00760, read-out: MIC); 5 µg/mL in assay [4] (FDA209P, read-out: MIC); 10 µg/mL in assay [5] (read-out: MIC); 20 µg/mL in assay [6] (ATCC25922, read-out: MIC).
Molecule `CN[C@H](CC(C)C)C(=O)N[C@H]1C(=O)N[C@@H](CC(N)=O)C(=O)N[C@H]2C(=O)N[C@H]3C(=O)N[C@H](C(=O)N[C@H](C(=O)O)c4cc(O)cc(O)c4-c4cc3ccc4O)[C@H](O)c3ccc(c(Cl)c3)Oc3cc2cc(c3O[C@@H]2O[C@H](CO)[C@@H](O)[C@H](O)[C@H]2O[C@H]2C[C@](C)(N)[C@H](O)[C@H](C)O2)Oc2ccc(cc2Cl)[C@H]1O` [Vancomycin] yielded an MIC in [1] (Leuconostoc mesenteroides) of more than 128 µg/mL.
Turning to `O=[N+]([O-])[O-].[Ag+]` [Silver Nitrate, silver nitrate], the MIC in assay [1] (Leuconostoc mesenteroides VKPM B-4177) came to 5 µg/mL; in assay [2], 10 µg/mL; in [3], 20 µg/mL; in [4] it was 20 µg/mL; in [5] it was 5 µg/mL; in [6], 10 µg/mL.
Take `CN(C)C(=N)N=C(N)N` [Metformin]: in assay [7], the “activity alone on cancer cells” value is on record as “did not show any significant activity”.
In turn, `CC1(C)S[C@@H]2[C@H](NC(=O)[C@H](N)c3ccc(O)cc3)C(=O)N2[C@H]1C(=O)O` [Amoxicillin] registered a minimal inhibitory concentration (MIC) in the assay with Bacillus subtilis of more than 128 µg/mL.
`CN(C)[C@@H]1C(O)=C(C(N)=O)C(=O)[C@@]2(O)C(O)=C3C(=O)c4c(O)cccc4[C@@](C)(O)[C@H]3C[C@@H]12` [Tetracycline]: the MIC in [8] was more than 128 µg/mL.
`COc1cccc2c1C(=O)c1c(O)c3c(c(O)c1C2=O)C[C@@](O)(C(=O)CO)C[C@@H]3O[C@H]1C[C@H](N)[C@H](O)[C@H](C)O1` [Doxorubicin]: the IC50 amounted to 0.08 µM in [9], 0.13 µM in [10], 0.28 µM with CRL-2945-R and 1.2 µM with U-87-R.
In the case of `N[C@H]1C(O)O[C@H](CO)[C@@H](O)[C@@H]1O` (stereo partly drawn) [Glucosamine], the “activity alone on cancer cells” value in assay [7] is “did not show any significant activity”.

As a reminder, the MIC is the least concentration at which growth counts as inhibited. Usually IC50 stands for the concentration that gives 50% inhibition. A lower IC50 goes with inhibition by little substance.
